Experimental data: PMC4789278, “Pharmacological inhibition of LSD1 for the treatment of MLL-rearranged leukemia” (Journal of Hematology & Oncology, 2016)

Experiments:
Molm-13 leukemia cells = assay: Antiproliferation assay (XTT), Molm-13; assay type: cell-based; conditions: Homo sapiens, MOLM-13, 360 h; 15-day treatment; MLL-rearranged leukemia; read-out: Molm-13 EC50 (antiproliferative)
Experimental: These compounds were incubated with a panel of six human leukemia and solid tumor cell lines, including two MLL-rearranged leukemia cells MV4-11 and Molm-13 containing fusion oncogenes MLL-AF4 and -AF9, respectively. […] Also included in the studies are breast cancer MCF-7 and prostate cancer LNCaP cells.
Proliferation inhibition assay for suspension leukemia cells was performed using an XTT assay kit (Roche) with our previously described method. Proliferation inhibition assay for solid tumor cell lines MCF-7 and LNCaP was performed using our previous described MTT assay. The antiproliferation EC50 values were determined by Prism, and the reported results were the mean values of at least three independent experiments.

recombinant human LSD1 = molecular target: T1, recombinant human LSD1 (Homo sapiens, UniProt O60341); assay: LSD1 enzyme inhibition assay (HRP/Amplex red); assay type: biochemical
T1 construct: Human LSD1 catalytic domain (172-833) was cloned; made in house; host or cells: E. coli BL21-CodonPlus (Agilent)
Experimental: The LSD1 inhibition assay was performed with the reaction rate (i.e., amount of the product H2O2, Additional file 1: Figure S2) being quantitatively determined by adding horseradish peroxidase (HRP) and a HRP fluorescence substrate Amplex red.
Human LSD1 catalytic domain (172-833) was cloned and inserted into pGEX-KG vector. The correctness of insert was verified by sequencing. BL21-CodonPlus strain (Agilent) was transformed with the pGEX-KG-LSD1 plasmid and cultured at 37 °C in LB medium containing ampicillin (50 μg/mL) and chloramphenicol (34 μg/mL). Upon reaching an optical density of ~0.9 at 600 nm, LSD1 expression was induced by adding 0.2 mM isopropylthiogalactoside at 25 °C for 20 h. Cells were harvested, lysed, and centrifuged at 20,000 rpm for 20 min, and the supernatant was collected and subjected to an affinity column chromatography using the glutathione sepharose resin.
The inhibition assay for the recombinant LSD1 was performed using a published protocol, with the reaction rate (i.e., amount of the product H2O2) being quantitatively determined by adding HRP and a HRP fluorescence substrate Amplex red. […] The total volume of the reaction mixture is 60 μL. After 20 min, 60-μL solution containing HRP (0.01 unit) and Amplex red (80 μM) was added and the fluorescence of each well was determined using a Beckman DTX-880 microplate reader (excitation at 535 and emission at 595 nm). Data were imported into Prism 5.0 (GraphPad), and the IC50 values were calculated by using the sigmoidal dose response curve fitting in the software. The reported IC50s were the mean values of at least three independent experiments.

| Structure (SMILES) | EC50 (Molm-13 leukemia cells) [µM] | IC50 (recombinant human LSD1) [µM] |
| --- | --- | --- |
| CN1CCN(C(=O)CNC2CC2c2ccc(OCc3ccccc3)cc2)CC1 (centres unmarked) [Compound 1] | 0.096 |  |
| CN1CCN(C(=O)CNC2CC2c2ccc(-c3ccc(F)nc3)cc2)CC1 (centres unmarked) [Compound 2] |  | 0.077 |
